A short description of series [1]: In vivo drug release / pharmacokinetics, plasma galantamine by HPLC-ESI-MS/MS. The arrangement: species or system Sprague-Dawley (SD) rats; AUC0-t / AUC0-∞: unit not given here. Particulars: 24 mg/kg. The method, then: Healthy Sprague-Dawley (SD) rats weighing 200–210 g were supplied by the Experimental Animal Breeding Center of Jinan Pengyue Co., Ltd. (Jinan, China). Before the drug administration, all rats were fasted for 12 h. But they were free access to diet and water throughout the study ([Zhang et al., 2019]). This study conformed to the Guide for the Care and Use of Laboratory Animals.
The study groups were carried out with twelve rats, which were randomly divided into two groups each with six rats. […] The blood samples of both groups were obtained via the orbital venous plexus and collected into heparinized tubes before and after dosing at 1 h, 3 h, 6 h, 12 h, 1 day, 2 days, 3 days, 4 days, 6 days, 8 days, 10 days, 12 days, […], 16 days, 18 days, 20 days. Other eighteen rats were randomly divided into the placebo group, negative group and oral administration group of six rats each. The placebo group received […] microspheres suspension in diluent at a single dose of 20 mg/kg by i.m., and the blood samples of this group were obtained the same as group I. The negative group was also carried out without any treatment, and the blood samples of this group were obtained the same as group I. The oral administration group was performed with GLT-PM (24 mg/kg), which was infused to stomach of rats. The blood samples of oral administration group were obtained before and after dosing at 15 min, 30 min, 45 min, 1 h, 1.5 h, 2 h, 3 h, 4 h, 6 h, 8 h, 12 h, 24 h, 48 h, 72 h. All blood samples were centrifuged immediately at 4,500 rpm for 10 min, and the plasma samples were separated into EP tubes and stored at −80°C until analysis ([Jiang et al., 2014]; [Zhang et al., 2019]).
After thawing at room temperature, 50 μL plasma samples were separately added into a […] centrifuge tube with the addition of 150 μL of acetonitrile. This mixture was vortex mixed for 1 min and centrifuged at 12700 rpm for 10 min. Then 100 μL supernate was mixed with 100 μL deionized water, and they was injected into vials for analysis ([Zhang et al., 2019]).
AB Sciex QTrap 6,500 + triple-quadrupole tandem mass spectrometer (Applied Biosystem Inc., Foster City, Calif, United States) was connected to Waters Acquity UPLC H-Class HPLC system (Waters Inc., Milford, Massachusetts, United States) via electro-spray ionization (ESI) interface. LC separation was performed on a Waters BEH C8 column (2.1 × 50 mm I.D., 1.7 μm) with mobile phase A (1 mmol/L ammonium acetate solution) and phase B (mixture of acetonitrile and methanol, 4:1, v/v) at 40°C, which was used with gradient elution as shown in Table 2 ([Suresha et al., 2014]). Quantitative analyses were performed in positive ion mode on a 6500 Q-trap mass analyzer (AB Sciex, Framingham, MA) coupled with electrospray ion source. Multiple reaction monitoring (MRM) mode was used for the quantification with ion spray voltage set at 5500 V, curtain gas 35 psi, […], and the interface heater temperature 450°C. […]
The plasma concentration-time data were analyzed with non-compartmental model by Phoenix WinNonlin 8.1 software (Pharsight Corporation, United States) to obtain the pharmacokinetic parameters, which included the area under the plasma concentration-time curve (AUC), half-life (T1/2) and mean residence time (MRT). The maximum plasma drug concentration (Cmax) and the time required to reach Cmax (Tmax) were directly read from the plasma concentration-time data.

Series [2] is described as follows: Determination of solubility in different solvents (shaken 24 h, HPLC). In kind it is physicochemical. Particulars: 25 °C, thermodynamic from solid, mean ± SD. As for the experimental part:
Then they were shaken for 24 h with 100 rpm at 25°C. At last, the supernatant was directly injected into HPLC after high speed centrifugation (3,000 rpm for 10 min).

The conditions of series [3]: 25°C; ref Marco-Contelles et al., 2005; Saigal et al., 2013; cited from earlier work.
Where [4] appears, read: Oral administration: rats, plasma galantamine.
The mark [5] stands for this setting: Sprague-Dawley, rat, plasma, po.
Setting [6] is: n = 3, read-out: Solubility, benzyl alcohol.
Where [7] appears, read: n = 3, read-out: Solubility, deionized water.
[8] abbreviates: n = 3, read-out: Solubility, dichloromethane.
Setting [9] is: n = 3, read-out: Solubility, methanol.

Structures can show the parent of a compound that is named as a salt. Where two headings read alike, the source gives them in different places.

For the compound `COc1ccc2c3c1O[C@H]1C[C@@H](O)C=C[C@@]31CCN(C)C2.COc1ccc2c3c1O[C@H]1C[C@@H](O)C=C[C@@]31CCN(C)C2.O=C(O)c1cc2ccccc2c(Cc2c(O)c(C(=O)O)cc3ccccc23)c1O` [GLT-PM, galantamine pamoate], in series [1] (setting [4]), the AUC0-t is 532.54 ± 73.08 and the “AUC0-∞” value was found to be 532.91 ± 72.92. Further, in series [1] (setting [5]), the peak level (Cmax) was 119 ± 44.6 ng/mL, the Tmax was 0.96 h and the half-life was 4.32 h. For the same compound, the solubility at 24 h in series [2] (setting [6]) turned out to be 357300 ± 210 µg/mL. Moreover, the solubility at 24 h in series [2] (setting [7]) amounted to 200 ± 20 µg/mL. The solubility at 24 h in series [2] (setting [8]) was 8720 ± 520 µg/mL. Further, the solubility at 24 h in series [2] (setting [9]) worked out at 1010 ± 210 µg/mL.
Regarding `COc1ccc2c3c1O[C@H]1C[C@@H](O)C=C[C@@]31CCN(C)C2` [Galantamine hydrobromide, reference compound], the solubility at 24 h stood at 1570 ± 190 µg/mL in series [2] (setting [6]), 4320 ± 370 µg/mL in series [2] (setting [7]), 320 ± 30 µg/mL in series [2] (setting [8]) and 820 ± 90 µg/mL in series [2] (setting [9]). Also, the Solubility in series [3] was 5170 µg/mL.

Usually Cmax stands for the peak of the concentration-time curve. What is called Tmax is the time at which the peak concentration occurs. The half-life is how long it takes for the measured level to halve. For orientation: solubility means the dissolved amount per volume that the medium holds. In general, Solubility refers to the dissolved amount per volume that the medium holds.
